Laboratory results from publication PMC7589326, “Synthesis and Pharmacological Evaluation of Fluorinated Quinoxaline‐Based κ‐Opioid Receptor (KOR) Agonists Designed for PET Studies” (Chemmedchem, 2020).
Read-outs that look alike come from different tables or passages of the source.

Experiments:
KOR [1] = target: T1, KOR (Cavia porcellus, UniProt P41144); assay: biochemical; assay type: binding, guinea pig
T1 construct: The thawed guinea pig brain membrane preparation (about 100 μg of the protein) was incubated; tissue Harlan-Winkelmann, Borchen, Germany; host or cells: guinea pig brain membrane homogenate
T1 sequence (P41144 whole entry): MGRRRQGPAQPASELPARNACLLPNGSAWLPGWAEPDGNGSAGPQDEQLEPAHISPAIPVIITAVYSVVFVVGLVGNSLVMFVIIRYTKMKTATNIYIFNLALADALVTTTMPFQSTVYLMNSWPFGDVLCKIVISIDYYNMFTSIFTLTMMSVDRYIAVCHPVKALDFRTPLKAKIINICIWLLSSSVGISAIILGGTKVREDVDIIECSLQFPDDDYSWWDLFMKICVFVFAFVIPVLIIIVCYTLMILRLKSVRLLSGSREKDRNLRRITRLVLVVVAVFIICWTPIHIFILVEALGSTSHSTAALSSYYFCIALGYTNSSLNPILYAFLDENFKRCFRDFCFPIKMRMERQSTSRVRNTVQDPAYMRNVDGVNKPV

MOR [2] = target: T2, MOR (Cavia porcellus, UniProt A0ACM8Q262); assay: biochemical; assay type: binding, guinea pig; conditions: for inhibition at 1 µM: read-out: % inhibition at 1 μM MOR [3H]DAMGO
T2 sequence (A0ACM8Q262 1-400): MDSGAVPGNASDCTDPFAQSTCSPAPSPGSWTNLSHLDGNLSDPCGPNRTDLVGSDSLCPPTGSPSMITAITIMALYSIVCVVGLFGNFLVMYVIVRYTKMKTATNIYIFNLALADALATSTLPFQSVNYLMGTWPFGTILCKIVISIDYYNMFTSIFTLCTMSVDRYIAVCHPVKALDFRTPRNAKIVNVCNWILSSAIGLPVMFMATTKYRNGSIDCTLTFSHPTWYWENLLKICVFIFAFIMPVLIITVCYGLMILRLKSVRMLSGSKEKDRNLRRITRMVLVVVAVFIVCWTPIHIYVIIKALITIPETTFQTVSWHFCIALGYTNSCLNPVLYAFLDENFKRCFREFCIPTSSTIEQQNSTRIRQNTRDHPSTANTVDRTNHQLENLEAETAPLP

DOR = target: T3, DOR (Rattus norvegicus, UniProt P33533); assay: biochemical; assay type: binding; conditions: for inhibition at 1 µM: read-out: % inhibition at 1 μM DOR [3H]DPDPE
T3 construct: preparations from rat brain were employed in the DOR assay; tissue Harlan-Winkelmann, Borchen, Germany; host or cells: rat brain (Sprague Dawley) membrane homogenate
T3 sequence (P33533 whole entry): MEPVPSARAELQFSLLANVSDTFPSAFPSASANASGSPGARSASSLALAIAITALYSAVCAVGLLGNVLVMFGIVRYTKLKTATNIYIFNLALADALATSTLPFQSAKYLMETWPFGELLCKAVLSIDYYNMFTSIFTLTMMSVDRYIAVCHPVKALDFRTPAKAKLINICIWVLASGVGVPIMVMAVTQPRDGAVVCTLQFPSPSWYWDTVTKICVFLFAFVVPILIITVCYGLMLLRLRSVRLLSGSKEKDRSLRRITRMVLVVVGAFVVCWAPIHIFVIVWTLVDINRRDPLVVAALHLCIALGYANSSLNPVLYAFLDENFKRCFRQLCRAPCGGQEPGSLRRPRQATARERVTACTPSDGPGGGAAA

σ1 receptor [3] = target: T4, σ1 receptor (Cavia porcellus, UniProt Q60492); assay: biochemical; assay type: binding, guinea pig; conditions: read-out: % inhibition at 1 μM σ1 (+)-[3H]pentazocine
T4 construct: Membrane preparations from guinea pig brain were used in the MOR and σ1 assay; tissue Harlan-Winkelmann, Borchen, Germany; host or cells: guinea pig brain membrane homogenate
T4 sequence (Q60492 whole entry): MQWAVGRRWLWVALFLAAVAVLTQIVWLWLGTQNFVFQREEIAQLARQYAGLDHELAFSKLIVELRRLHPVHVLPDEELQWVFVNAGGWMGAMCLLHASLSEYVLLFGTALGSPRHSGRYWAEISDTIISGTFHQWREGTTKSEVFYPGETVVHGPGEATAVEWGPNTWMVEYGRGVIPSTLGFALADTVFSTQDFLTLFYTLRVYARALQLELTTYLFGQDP

σ2 receptor [4] = target: T5, σ2 receptor (Rattus norvegicus, UniProt Q5U3Y7); assay: biochemical; assay type: binding; conditions: for inhibition at 1 µM: read-out: % inhibition at 1 μM σ2 [3H]DTG
T5 construct: tissue Harlan-Winkelmann, Borchen, Germany; host or cells: rat liver membrane homogenate
T5 sequence (Q5U3Y7 1-176): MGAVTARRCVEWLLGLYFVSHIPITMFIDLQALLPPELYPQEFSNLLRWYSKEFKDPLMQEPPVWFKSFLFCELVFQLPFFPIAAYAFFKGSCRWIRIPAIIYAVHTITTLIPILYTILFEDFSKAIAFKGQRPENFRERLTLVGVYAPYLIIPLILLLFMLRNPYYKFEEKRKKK

mouse DCs (wild-type) = assay type: cell-based
[5] = tested on: DCs from KOR-deficient mice; assay type: cell-based, mouse
human DCs = assay type: cell-based
[6] = tested on: mouse T cells (wild-type); assay type: cell-based
KOR [7] = target: T6, KOR (Homo sapiens, UniProt P41145); assay: cell-based; set-up: expressed in transfected cells; host or cells: HEK 293T (ATCC CRL-11268)
Target sequence in this assay (P41145 whole entry, the tested form may be a part): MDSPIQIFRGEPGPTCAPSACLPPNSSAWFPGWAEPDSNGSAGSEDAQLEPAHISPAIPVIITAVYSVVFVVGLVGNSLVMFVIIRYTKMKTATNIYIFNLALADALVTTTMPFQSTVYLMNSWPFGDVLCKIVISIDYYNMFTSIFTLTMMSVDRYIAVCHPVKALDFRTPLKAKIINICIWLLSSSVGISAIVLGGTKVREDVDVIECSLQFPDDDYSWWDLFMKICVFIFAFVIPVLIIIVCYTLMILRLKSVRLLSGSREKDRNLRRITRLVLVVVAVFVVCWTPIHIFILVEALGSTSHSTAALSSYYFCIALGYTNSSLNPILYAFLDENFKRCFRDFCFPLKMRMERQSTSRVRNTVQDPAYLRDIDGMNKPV

KOR [8] = target: T6, KOR; assay: cell-based; set-up: expressed in transfected cells; host or cells: HTLA cells (stably expressing TEV-fused β-arrestin2)
Target sequence in this assay (P41145 whole entry, the tested form may be a part): as above
Target sequence in this assay (P32121 whole entry partner, the tested form may be a part): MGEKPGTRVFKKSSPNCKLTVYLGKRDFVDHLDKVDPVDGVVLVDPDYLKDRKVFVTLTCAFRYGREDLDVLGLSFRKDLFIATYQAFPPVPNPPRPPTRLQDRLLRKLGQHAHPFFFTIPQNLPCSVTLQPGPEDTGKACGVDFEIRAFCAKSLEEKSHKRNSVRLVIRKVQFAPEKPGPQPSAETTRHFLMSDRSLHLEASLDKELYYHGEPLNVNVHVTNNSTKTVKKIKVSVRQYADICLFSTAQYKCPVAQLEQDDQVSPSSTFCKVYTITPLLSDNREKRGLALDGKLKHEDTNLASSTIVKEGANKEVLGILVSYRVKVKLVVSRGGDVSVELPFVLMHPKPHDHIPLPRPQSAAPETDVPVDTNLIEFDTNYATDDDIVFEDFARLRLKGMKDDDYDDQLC

[9] = tested on: T cells from KOR-deficient mice; assay type: cell-based, mouse
human T cells = assay type: cell-based
MOR [10] = target: T2, MOR; conditions: cited from earlier work
σ1 receptor [11] = target: T4, σ1 receptor; conditions: cited from earlier work
σ2 receptor [12] = target: T5, σ2 receptor; conditions: cited from earlier work
[13] = Distribution coefficient logD7.4, shake flask method with radioligand; assay type: physicochemical
Protocol: The distribution coefficient at pH 7.4 (logD7.4) was determined by a shake flask method using the radioligand [^18F]‐2. After distribution of [^18F]‐2 between n‐octanol and phosphate buffered saline (pH 7.4) layers, the radioactivity in both layers was determined and set in ratio. According to this procedure, a logD7.4 value of 1.37±0.06 was determined indicating a moderate lipophilic compound, which should be able to penetrate into the central nervous system.
The lipophilicity of radioligands [^18F]‐2 and [^18F]‐14c was assessed by determination of the water n‐octan‐1‐ol distribution coefficient (logD) following a published procedure.57 In brief, approximately 3.2 MBq of radioligand [^18F]‐2 and approximately 0.3 MBq of radiotracer [^18F]‐14c, respectively, were mixed with equal amounts (0.6 mL) of phosphate buffered saline (PBS, pH 7.4) and n‐octan‐1‐ol. The resulting biphasic system was mixed vigorously for 3 min at room temperature and subsequently, the tubes were centrifuged (≥5 min). Then 400 μL of the n‐octan‐1‐ol layer was separated and 400 μL of PBS were added. The mixture was mixed vigorously for 10 min at room temperature followed by centrifugation of the tubes for≥5 min. Two samples of 100 μL of each layer were counted in a γ‐counter (2480 Automatic Gamma Counter Wizard^2, Perkin‐Elmer). The distribution coefficient was determined by calculating the ratio cpm(n‐octan‐1‐ol)/cpm(PBS) and expressed as logD 7.4 (log(cpmn‐octanol/cpmPBS)). Three independent experiments were performed in duplicate and data were provided as mean values ±standard deviation.

[14] = Stability in mouse serum (radio-HPLC); assay type: in vitro ADME; conditions: 90 min, 37 °C
Protocol: (§1) Enzymes present in blood serum could be able to transform the radioactive PET tracer [^18F]‐2. Therefore, the blood serum stability of [^18F]‐2 was investigated before testing the tracer in vivo. [^18F]‐2 was incubated with mouse and human serum for 90 min at 37 °C.
(§2) The serum stability of radioligands [^18F]‐2 and [^18F]‐14c was evaluated by incubation in mouse or human serum at 37 °C for up to 90 min. An aliquot of formulated [^18F]‐2 or [^18F]‐14c (20 μL, ca. 6.6 MBq and ca.10 MBq, respectively) was added to a sample of mouse serum (200 μL) or human serum (200 μL), and the mixtures were incubated at 37 °C. Samples of 20 μL each were taken after periods of 10, 30, 60 and 90 min and ice‐cold DNA‐grade CH3CN (100 μL) were added. After centrifugation for ≥5 min, the supernatant was analyzed by analytical radio‐HPLC B, method B.

[15] = Stability in human serum (radio-HPLC); assay type: in vitro ADME; conditions: 90 min, 37 °C
Protocol: as §1, §2

[16] = In vivo biodistribution, small animal PET in C57BL/6 mice; set-up: species or system mouse
Protocol: Next, the distribution of the PET tracer [^18F]‐2 in mice was investigated. For this purpose, [^18F]‐2 was injected into 15‐week‐old C57BL/6 mice. […] Already after 2 min the radioactivity was almost completely found in liver, kidneys and bladder. In the liver, the radioactivity remained almost constant over the period of 90 min (Figure 6). Besides a transient local increase in radioactivity in the submandibular and harderian glands, no significant accumulation of [^18F]‐2 in non‐excreting organs such as heart, lung and muscles as indicator for unspecific binding could be detected.
Adult C57BL/6 mice (n=2 male, 15 weeks, 28 g for [^18F]‐2; n=2, male, 10 weeks, 25 g for [^18F]‐14c) were anesthetized by isoflurane/O2 and one lateral tail vein was cannulated BY using a 27 G needle connected to 15 cm polyethylene catheter tubing. Radiotracers (∼500 kBq/g bodyweight, 15 MBq) were injected as a bolus (50 μL compound flushed with 100 μL saline) via the tail vein and subsequent PET scanning was performed.
Small Animal PET Scanning. PET experiments were carried out using a submillimeter high resolution (0.7 mm full width at half‐maximum) small animal scanner (32 module quadHIDAC, Oxford Positron Systems Ltd., Oxford, UK) with uniform spatial resolution (<1 mm) over a large cylindrical field (165 mm diameter, 280 mm axial length). List‐mode data were acquired for 90 min and reconstructed into dynamic time frames using an iterative reconstruction algorithm. Subsequently, the scanning bed was transferred to the computed tomography (CT) scanner (Inveon, Siemens Medical Solutions, U.S.), and a CT acquisition with a spatial resolution of 80 μm was performed for each mouse. Reconstructed image data sets were coregistered based on extrinsic markers attached to the multimodal scanning bed and the in‐house developed image analysis software MEDgical. Three‐dimensional volumes of interest (VOIs) were defined over the respective organs in CT data sets, transferred to the coregistered PET data, and analyzed quantitatively. Regional uptake was calculated as percentage of injected dose by dividing counts per milliliter in the VOI by total counts in the mouse multiplied by 100 (%ID/mL).

## CC(C)(C)OC(=O)N1CCN(C(=O)Cc2ccc(Cl)c(Cl)c2)[C@@H]2[C@@H](N3CC[C@H](O)C3)CCC[C@@H]21 (mixture of isomers) [12a, tert‐Butyl (4aR,5S,8aS)‐ and (4aS,5R,8aR)‐4‐[2‐(3,4‐dichlorophenyl)acetyl]‐5‐[(S)‐3‐hydroxypyrrolidin‐1‐yl]‐3,4,4 a,5,6,7,8,8 a‐octahydroquinoxaline‐1(2H)‐carboxylate]
KOR [1]; Ki±SEM KOR [3H]U-69,593
  Ki: 16 ± 2 nM
MOR [2]
  inhibition at 1 µM: 9%
DOR
  inhibition at 1 µM: 5%
σ1 receptor [3]
  inhibition at 1 µM: 0%
σ2 receptor [4]
  inhibition at 1 µM: 0%

## COC(=O)N1CCN(C(=O)Cc2ccc(Cl)c(Cl)c2)[C@@H]2[C@@H](N3CC[C@H](O)C3)CCC[C@@H]21 (mixture of isomers) [12c, Methyl (4aR,5S,8aS)‐ and (4aS,5R,8aR)‐4‐[2‐(3,4‐dichlorophenyl)acetyl]‐5‐[(S)‐3‐hydroxypyrrolidin‐1‐yl]‐3,4,4 a,5,6,7,8,8 a‐octahydroquinoxaline‐1(2H)‐carboxylate]
KOR [1]; Ki±SEM KOR [3H]U-69,593
  Ki: 9.2 ± 6 nM
MOR [2]
  inhibition at 1 µM: 5%
DOR
  Ki: 693 nM
σ1 receptor [3]
  inhibition at 1 µM: 0%
σ2 receptor [4]
  inhibition at 1 µM: 5%
Mouse DCs (wild-type)
  expression of maturation marker CD11c and IFN-γ production: significantly reduced
[5]
  anti-inflammatory effect (CD11c, IFN-γ) in DCs from KOR-deficient mice: completely abrogated
Human DCs
  expression of CD11c and production of IFN-γ in human DCs: reduced
[6]
  expression of surface activation markers CD25, CD44 and CD69 and IFN-γ production: did not modulate the activation status
KOR [7]
  EC50: 0.19 nM
KOR [7]; HEK-293T, read-out: cAMP E max
  Emax: 100%
KOR [8]
  EC50: 8.8 nM
KOR [8]; HTLA, read-out: β-Arrestin-2 E max
  Emax: 82%

## COC(=O)N1CCN(C(=O)Cc2ccc(Cl)c(Cl)c2)[C@@H]2[C@@H](N3CC[C@@H](F)C3)CCC[C@@H]21 (mixture of isomers) [14c, Methyl (4aR,5S,8aS)‐ and (4aS,5R,8aR)‐4‐[2‐(3,4‐dichlorophenyl)acetyl]‐5‐[(R)‐3‐fluoropyrrolidin‐1‐yl]‐3,4,4 a,5,6,7,8,8 a‐ octahydroquinoxaline‐1(2H)‐carboxylate]
KOR [1]
  Ki: 0.82 ± 0.69 nM
  selectivity over the related MOR, DOR and σ receptors: more than 1000 fold
MOR [2]
  inhibition at 1 µM: 0%
DOR
  inhibition at 1 µM: 12%
σ1 receptor [3]
  inhibition at 1 µM: 8%
σ2 receptor [4]
  Ki: 962 nM
Mouse DCs (wild-type)
  expression of maturation marker CD11c and IFN-γ production: significantly reduced
[5]
  anti-inflammatory effect (CD11c, IFN-γ) in DCs from KOR-deficient mice: completely abrogated
Human DCs
  expression of CD11c and production of IFN-γ in human DCs: reduced
[6]
  anti-inflammatory cytokine IL-10 in cell cultures: significant upregulation
  expression of surface activation markers CD25, CD44 and CD69 and IFN-γ production: significantly reducing
[9]
  expression of activation markers or cytokine release in T cells from KOR-deficient mice: did not result in an altered expression
Human T cells
  IL-10 induction: only slightly but not significantly induced
  expression of surface activation markers CD25 and CD69 and IFN-γ secretion: significantly reduce

## CC(C)(C)OC(=O)N1CCN(C(=O)Cc2ccc(Cl)c(Cl)c2)[C@@H]2[C@@H](N3CCCC3)CCC[C@@H]21 [1a]
MOR [10]; read-out: Ki MOR [3H]DAMGO
  Ki: 260 nM
σ1 receptor [11]
  % inhibition at 1 μM σ1 (+)-[3H]pentazocine: 12%
σ2 receptor [12]
  % inhibition at 1 μM σ2 [3H]DTG: 16%

## COC(=O)N1CCN(C(=O)Cc2ccc(Cl)c(Cl)c2)[C@@H]2[C@@H](N3CCCC3)CCC[C@@H]21 [1c]
MOR [10]
  % inhibition at 1 μM MOR [3H]DAMGO: 0%
σ1 receptor [11]
  % inhibition at 1 μM σ1 (+)-[3H]pentazocine: 0%
σ2 receptor [12]
  % inhibition at 1 μM σ2 [3H]DTG: 8%

## COC(=O)N1CCN(C(=O)Cc2ccc(Cl)c(Cl)c2)[C@@H]2[C@@H](N3CC[C@@H]([18F])C3)CCC[C@@H]21 [[^18F]‐14c, Methyl (4aR,5S,8aS)‐ and (4aS,5R,8aR)‐4‐[2‐(3,4‐dichlorophenyl)acetyl]‐5‐[(R)‐3‐[^18F]fluoropyrrolidin‐1‐yl]‐3,4,4 a,5,6,7,8,8 a‐octahydroquinoxaline‐1(2H)‐carboxylate]
[13]; n-octanol / PBS pH 7.4
  concentration in the n-octanol layer relative to [18F]-2: 15 fold
[13]; n-octanol / phosphate buffered saline pH 7.4
  logD: 2.54 ± 0.22
[14]
  stability in mouse serum: high stability
[15]
  stability in human serum: high stability
[16]; 90 min after injection
  residual radioactivity in organs ex vivo (γ-counter): mainly present in the excretion organs and in the urine
[16]; C57BL/6 mice, intravenous injection
  radioactivity in the bones / defluorination: fast defluorination
[16]; C57BL/6 mice, intravenous injection, hepatic and renal pathways
  clearance from the body: fast

## DAMGO [reference compound]
MOR [2]; read-out: Kd-value of radioligand, MOR assay
  Kd: 0.57 nM
